Test results as given in patent publication EP0533790B1, “NEW SALT FORM OF 5-DIFLUOROMETHOXY-2- [3,4-DIMETHOXY-2-PYRIDYL)METHYLSULFINYL-1H-BENZIMIDAZOLE” (BYK GULDEN LOMBERG CHEMISCHE FABRIK GMBH, priority 1990, dated 1991).

Experiments:
Type in all cases: physicochemical
[1] = Limiting solubility in phosphate buffer, measured in the presence of undissolved solid; conditions: 22°C; for Grenzlöslichkeit: pH 7,4, in the presence of undissolved solid
Solubility in acetone = conditions: solvent acetone (for the 1,5-Hydrat also other lower ketones)
[2] = Hygroscopicity / water uptake on storage
Protocol: So nimmt es bei Temperaturen von 20 bzw. 30°C und einer relativen Luftfeuchtigkeit von 80 % bei der Lagerung kein Wasser auf (keine Umwandlung in das 1,5-Hydrat!).

SMILES	Grenzlöslichkeit [1]	Löslichkeit in Aceton (Solubility in acetone)	Grenzlöslichkeit relative to the 1,5-Hydrat ([1]; pH 7,4, ratio versus the 1,5-Hydrat)	Hygroskopizität [2]	Wasseraufnahme bei der Lagerung ([2]; 20 or 30°C, relative humidity 80 %, storage)
COc1ccnc(C[S+]([O-])c2nc3ccc(OC(F)F)cc3[nH]2)c1OC (stereo not shown) [1,5-Hydrat, 5-Difluormethoxy-2-[(3,4-dimethoxy-2-pyridyl)methylsulfinyl]-1H-benzimidazol-Natriumsalz-1,5-hydrat, reference compound]	6,2 x 10^-4 mol/l	leichtlöslich			
COc1ccnc(C[S+]([O-])c2nc3ccc(OC(F)F)cc3[nH]2)c1OC (stereo not shown) [Monohydrat, 5-Difluormethoxy-2-[(3,4-dimethoxy-2-pyridyl)methylsulfinyl]-1H-benzimidazol-Natriumsalz-monohydrat]	0.0013 mol/L	schwer löslich	etwa doppelt so große	nicht hygroskopisch	kein Wasser
